In patent US12497460B2, “Anti-MSR1 antibodies and methods of use thereof” (REGENERON PHARMACEUTICALS, INC., priority 2018, dated 2025):
Read-outs that look alike come from different tables or passages of the source. Marks after values point to notes of the source that are not given here.

Assays:
hMSR1/ApoE-KO mice [1] = experiment: CAIA, pro-inflammatory cytokines in joint homogenates; assay type: in vivo, mouse
Method: (§1) To induce CAIA, hMSR1/ApoE-KO mice were intraperitoneally injected with an 8 mg/kg mixture of five anti-type II collagen mAbs (Chondrex, Cat #53100, Lot #180140) on day 0, followed by intraperitoneal administration with 50 μg lipopolysaccharide (LPS; 0111:B4; Chondrex, Cat #53100, Lot #180141) on day 3. Severity of the […] levels of arthritis was graded up to 13 days after mAb injection in each of the four limbs per mouse on a […]. The criteria for the grading were as follows: 0, normal; 1, mild redness and swelling of ankle/wrist or individual digits; 2, moderate redness and swelling of ankle/wrist; 3, severe redness and swelling of the entire paw including the digits; 4, maximal swelling in limbs involving multiple joints. The maximum value of the sum of the scores obtained from the four limbs of each mouse was 16. […] PBS, unconjugated anti-MSR1 Ab (H1H21234N-N297Q) and free steroid payload (P4-1), were intraperitoneally injected every other day or daily (referred to as P4-1 ED). All mice were sacrificed on day 13 and inflamed patella were collected for subsequent homogenization and cytokine detection.
Inflamed knee patella were collected in 2 mL microcentrifuge tubes containing two tungsten carbide beads (Qiagen, Cat #69997) and 500 μL of T-per buffer (Thermo Scientific, Cat #78510, Lot #QF217759) containing protease inhibitor cocktail and 0.5M EDTA (Thermo Scientific, Cat #78444, Lot #RF231047). Tissues were disrupted at the frequency of 30s^−1 for 10 minutes using Qiagen Tissue Lyser II, centrifuged at 14,000 rpm for 7 minutes, and then supernatants were collected without disturbing the pellet. Cytokine concentrations in the supernatants were measured using a Proinflammatory Panel 1 (mouse) multiplex immunoassay kit (MesoScale Discovery, Cat #K15048D) according to the manufacturer's instructions. In brief, 50 μL/well of calibrators and samples (diluted in Diluent 41) were added to the plates pre-coated with capture antibodies and incubated at room temperature while shaking at 700 rpm for 2 hours. The plates were then washed 3 times with 1×PBS containing 0.05% (w/v) Tween-20, followed by the addition of 25 μL of Detection Antibody Solution diluted in Diluent 45. After 2-hour incubation at room temperature while shaking, the plates were washed 3 times, and 150 μL of 2× Read Buffer was added to each well. Electrochemiluminescence was immediately read on MSD Spector© instrument. Cytokine concentrations were normalized per total protein content in tissue homogenates measured using Bradford protein assay (BioRad, Cat #5000006, Lot #64144266). Data analysis was performed using GraphPad Prism™ software. Statistical significance within the groups was determined by one-way Anova with Turkey's multiple comparison post-test (*p<0.01; **p<0.001; ***p<0.0001).

hMSR1/ApoE-KO mice [2] = experiment: Anti-type II collagen antibody-induced arthritis (CAIA), clinical scores; assay type: in vivo, mouse
Method: An MSR1-non-cytotoxic antibody drug (ncADC) conjugate was tested in anti-type II collagen antibody-induced arthritis (CAIA) in vivo; cytokine detection in inflamed joints using Proinflammatory Panel 1 (mouse) Multiplex Immunoassay kit (MSD)
To further examine the anti-inflammatory effect of the anti-MSR1 Ab-steroid ncADC, the ncADC was evaluated in a collagen-antibody induced arthritis (CAIA) model in vivo. For the model, mice homozygously expressing human MSR1 extracellular domain and transmembrane domain in place of mouse MSR1 extracellular and transmembrane domains (humanized MSR1) and with a homozygous deletion of the ApoE gene (ApoE-KO) were utilized (resulting mice referred to as hMSR1/ApoE-KO mice).
as §1

[3] = tested on: Msr1^hu/hu ApoE^−/− mice, peritoneal macrophages; experiment: LPS-mediated expression of CD80 on peritoneal macrophages (flow cytometry); assay type: in vivo, mouse; settings: administered 2 hours before
Method: (§2) Assay protocol for ex vivo LPS-induced responses. In ex vivo LPS challenge experiments, mice were intraperitoneally administered with 10 μL/g of anti-MSR1 antibody-steroid conjugates (H1H21234N-N297Q-LP13), isotype control steroid conjugate (Isotype control-LP13), unconjugated anti-MSR1 antibody (H1H21234N-N297Q) and isotype control antibodies at different time points (24, 48, and 72 hours) prior to harvesting the peritoneal cells from peritoneal cavity. […] All mice were sacrificed at 0 hour time point and peritoneal cells were obtained from the peritoneum by the peritoneal lavage technique. In brief, 5 mL of ice cold 1×PBS (ThermoFisher Scientific, Cat #20012027) containing 2% BSA (Gibco, Cat #A9576) and 0.6 mM EDTA (ThermoFisher Scientific, Cat #15575020) were injected into the peritoneal cavity using 27 g needle. […] The resuspended cells were plated at 500,000 cells per well in 24-well tissues culture plates and incubated with or without 10 ng/mL of LPS for 18 hours.
Assay protocol for in vivo LPS-induced responses. In in vivo LPS challenge experiments, mice were intraperitoneally administered with 10 μL/g of decreasing concentrations of anti-MSR1 antibody-steroid conjugates (H1H21234N-N297Q-LP13) and isotype control steroid conjugate (Isotype control-N297Q-LP13) at 24 hours prior to in vivo LPS challenge. PBS and free steroid P4 were intraperitoneally injected at 2 hours prior to in vivo LPS challenge. At 0 hour time point, three large drops of blood (volume ˜ 100 μL) were collected from the maxillary vein of each mouse into serum gel separator tubes. The tubes were centrifuged at 2200-2500 rpm for 15 minutes, and the serum was collected into 96-well plates for subsequent measurement of cytokines. At 18 hours post in vivo LPS challenge, the peritoneal cells were obtained from periotenal cavity as aforementioned for subsequent flow cytometry analysis.
Analysis of expression of activation markers on peritoneal macrophages after LPS ex vivo challenge. Upon collection of supernatants for cytokine analysis, the plates were washed twice with 1×PBS w/o Ca^++/Mg2^++ (ThermoFisher Scientific, Cat #14190144), and the adherent peritoneal cells were harvested by addition of 250-300 μL of cold Macrophage Detachment Solution DXF (PromoCell, Cat #C41330) for 40 minutes. The detached cells were collected into 50-mL tubes and centrifuged at 350×g for 15 minutes. After two washes with 1×PBS supplemented with 2 mM EDTA, the cells were resuspended in Cell Staining Buffer (Biolegend, #420201) and plated at 1×10^6 cells per well in a 96-well V bottom plate. […] Data were analyzed using FlowJo (Tree Star).

[4] = tested on: Msr1^hu/hu ApoE^−/− mice, peritoneal cells; experiment: Ex vivo LPS-induced cytokine production by peritoneal cells after in vivo dosing; set-up: species or system mouse; settings: administered 2 hours before peritoneal cell isolation; ex vivo LPS
Method: To examine the anti-inflammatory effect of the anti-MSR1 antibody-steroid conjugates, an ex-vivo and in vivo LPS-induced inflammatory immune response model was performed.
Generation of a mouse inflammatory immune response model. Mice homozygously expressing human MSR1 extracellular domain in place of the mouse MSR1 extracellular domain and with a homozygous deletion of the ApoE gene were utilized (resulting mice referred to as Msr1^hu/hu ApoE^−/− mice).
as §2
Measurement of cytokines at 18 hours post-LPS ex vivo challenge. Supernatants were collected into 96-well round bottom tissue culture plates at 18 hours post-ex vivo LPS challenge and stored at […] until further analysis. Cytokine concentrations in the supernatants were measured using a Proinflammatory Panel 1 (mouse) multiplex immunoassay kit (MesoScale Diagnostics, Cat #K15048D) according to manufacturer's instructions. Electrochemiluminescence was read on a Meso Scale Diagnostics SECTOR® instrument. Data analysis was performed using GraphPad Prism™ software. Statistical significance within the groups was determined by one-way Anova with Turkey's multiple comparison post-test (*p<0.01; **p<0.001; ***p<0.0001).

[5] = tested on: LPS-induced IL-1β release in differentiated THP-1 cells; experiment: LPS-mediated IL-1β release assay; assay type: cell-based, human; settings: for IC50: Homo sapiens, 100 ng/ml LPS for 5 hours, read-out: IC50, inhibition of LPS-induced IL-1β secretion
Method: To test the anti-inflammatory properties of anti-MSR1 antibody-steroid conjugates in vitro, a lipopolysaccharide (LPS)-mediated IL-1β release assay was performed. For the assay, THP-1 cells were seeded onto 96 well plates at 40,000 cells/well in media containing RPMI supplemented with 10% FBS and pencillin/streptomycinin and differentiated with 200 nM Phorbol Myristate Acetate (PMA) for 3 days. After the 3-day differentiation period, three-fold serial dilutions of antibody drug conjugates, unconjugated antibodies, or free payloads in fresh media were added to the cells at final concentration ranging from 100 nM to 0.01 nM. Media alone served as a blank control. Subsequently at 24, 48, or 72 hours later, cells were treated with 100 ng/ml LPS (InVivoGen, Cat #tlrl-eklps) for 5 hours. The cell media was then collected, and IL-1β levels were measured using a V-PLEX Proinflammatory Panel 1 human kit (Meso Scale Diagnostics, Cat #15049D-2) as per manufacturer's instructions. Subsequently, the plate was read on a Meso Scale Diagnostics instrument.
IC50 values were determined from a four-parameter logistic equation over a 10-point response curve (GraphPad Prism). All IC50 values are expressed in M (molar) concentration. The IC50 values and IL-1β amount at the maximum concentration of antibody-steroid conjugates or controls are shown in Table 22 each of the time point tested.

[6] = joint homogenates, 2.95 mg/kg every 2 days

SMILES | pro-inflammatory cytokine levels in inflamed joints (hMSR1/ApoE-KO mice [1]; administered every other day) | Cytokines IL-1β (hMSR1/ApoE-KO mice [1]; [6]) | Cytokines IL-6 (hMSR1/ApoE-KO mice [1]; [6]) | Cytokines KC-GRO (hMSR1/ApoE-KO mice [1]; [6]) | Cytokines TNF-α (hMSR1/ApoE-KO mice [1]; [6]) | Clinical Score (hMSR1/ApoE-KO mice [2]; 2.95 mg/kg, every 2 days d6-d12) | inhibition of CAIA (hMSR1/ApoE-KO mice [2]; dosed every day (P4-1ED), compared with H1H21234N-N297Q-P4-3 at 21 mg/kg) | severity of CAIA (clinical scores) (hMSR1/ApoE-KO mice [2]; every other day) | LPS-mediated expression of CD80, pMΦ Cells ([3]; hMSR1+F4/80+CD11b+ peritoneal macrophages) | LPS-mediated expression of CD80, non-pMΦ Cells ([3]; hMSR1−F4/80−CD11b− cells) | Cytokine IL-6 [4] | Cytokine KC-GRO [4] [ng/mL] | Cytokine TNF-α [4] | IL1beta released at max concentration tested ([5]; 24 hour treatment before LPS) [pg/mL] | IL1beta released at max concentration tested ([5]; 48 hour treatment before LPS) [pg/mL] | IL1beta released at max concentration tested ([5]; 72 hour treatment before LPS) [pg/mL] | IC50 ([5]; THP-1, 24-hour time point) [nM] | IC50 ([5]; THP-1, 48-hour time point) [nM] | IC50 ([5]; THP-1, 72-hour time point) [nM]
CCC[C@@H]1O[C@@H]2C[C@H]3[C@@H]4C[C@H](F)C5=CC(=O)C=C[C@]5(C)[C@@]4(F)[C@@H](O)C[C@]3(C)[C@]2(C(=O)CN)O1 [P4-1, (1S,2S,4R,6R,8S,9S,11S,12R,13S,19S)-8-(2-Aminoacetyl)-12,19-difluoro-11-hydroxy-9,13-dimethyl-6-propyl-5,7-dioxapentacyclo[10.8.0.0^2,9.0^4,8.0^13,18]icosa-14,17-dien-16-one] | No effect | 20.6 ± 4.3 pg per mg of total protein | 131.4 ± 40.9 pg per mg of total protein | 8.9 ± 9 pg per mg of total protein | 8.3 ± 1.9 pg per mg of total protein | 9.4 ± 2.46 | Comparable inhibition of CAIA | did not attenuate CAIA |  |  |  |  |  |  |  |  |  |  | 
C[C@@H]1C[C@H]2[C@@H]3CCC4=CC(=O)C=C[C@]4(C)[C@@]3(F)[C@@H](O)C[C@]2(C)[C@@]1(O)C(=O)CO [Dexamethasone, dexamethasone, reference compound] |  |  |  |  |  |  |  |  | 77.69 ± 2.6 % relative to PBS/LPS-treatment | 99.6 ± 5.8 % relative to PBS/LPS-treatment | 134.5 ± 18.2* ng/mL | 19.9 ± 1.5 | 0.63 ± 0.11* ng/mL | 45.33 | 11.8 | 13.34 | 0.42 | 0.794 | 0.543
